Here are results for three molecules from patent US20230165242A1, “RODENTICIDAL BAIT AND METHOD OF CONTROLLING TARGET HARMFUL RODENTS” (priority 2020, published 2023).

The conditions of data set [1]: in vivo; cited from earlier work.
For data set [2], the system named is warfarin-sensitive male OFA-Sprague-Dawley rats. Put plainly: Synergy of bromadiolone and cholecalciferol, gavage, survival. Type of data set: in vivo, rat. As to conditions: gavage 5 consecutive days; bromadiolone 0.1 mg/kg alone, cholecalciferol 7.5 mg/kg alone, or both combined; after 20 days of observation. The text has this: A group of 10 warfarin-sensitive male OFA-Sprague-Dawley rats (Charles River, L′Arbresles, France), aged 10 weeks and with a body weight between 160 and 180 g, are fed by gavage for 5 consecutive days with a gavage solution containing bromadiolone (LIPHATECH, France) and cholecalciferol (Sigma-Aldrich, France) in a solvent consisting of 95% (v/v) of oil and 5% (v/v) of DMSO. During this period of gavage, the rats are fed with a conventional solid feed and water in unlimited amounts. The rats are fed by gavage with a volume of this gavage solution so as to administer an amount of bromadiolone corresponding to 0.1 mg of bromadiolone per kilogram of body weight of the rat fed by gavage and an amount of cholecalciferol corresponding to 7.5 mg of cholecalciferol per kilogram of body weight of the rat fed by gavage. The rats in two control groups, each consisting of 10 male OFA-Sprague-Dawley rats, are fed by gavage in the same conditions with gavage solutions containing, respectively, bromadiolone alone so as to administer an amount of bromadiolone corresponding to 0.1 mg of bromadiolone per kilogram of body weight of the rat fed by gavage and cholecalciferol alone so as to administer an amount of cholecalciferol corresponding to 7.5 mg of cholecalciferol per kilogram of body weight of the rat fed by gavage. […]

For data set [3] the test system is unchanged. Put plainly: Prothrombin level, Quick's time (bromadiolone / cholecalciferol gavage). Type of data set: in vivo, rat. The text has this:
Warfarin-sensitive male OFA-Sprague-Dawley rats (Charles River, L′Arbresles, France) are fed by gavage for 3 consecutive days with a gavage solution containing bromadiolone (LIPHATECH, France) and cholecalciferol (Sigma-Aldrich, France) in a solvent consisting of 95% (v/v) of oil and 5% (v/v) of DMSO. During this period of gavage, the rats are fed with a conventional solid feed and water in unlimited amounts. The concentrations of bromadiolone and cholecalciferol in the gavage solution are 0.1 g/kg (100 ppm) and 7.5 g/kg (7500 ppm) respectively. Each rat receives daily a volume of gavage solution calculated to correspond to 1 mL of gavage solution per kilogram of body weight. The OFA-Sprague-Dawley rats in two control groups are fed by gavage in the same conditions with gavage solutions containing bromadiolone (alone) at a concentration of 100 ppm or cholecalciferol (alone) at a concentration of 7500 ppm, respectively. 24 hours after the last gavage, a volume of blood is taken from each rat by intracardiac puncture and placed in a specimen tube containing sodium citrate. The animals are euthanized after puncture and the plasma is prepared by centrifugation. Quick's time (or clotting time) is evaluated on the plasma supplemented with sodium citrate, then decalcified and recalcified in the presence of calcium thromboplastin. Quick's time is evaluated by means of an optical device for clotting analysis (Option 2plus, Bio Mèrieux®). The results are presented [FIG. 2]. The average Quick's time measured on the plasma from the rats fed by gavage with bromadiolone (bar “B”) is 12.4 seconds (±1.8), the average Quick's time measured on the plasma from the rats fed by gavage with cholecalciferol (bar “C”) is 12.4 seconds (±0.9) and the average Quick's time measured on the plasma from the rats fed by gavage with the composition comprising bromadiolone and cholecalciferol (bar “D”) is 14.1 seconds (±2.7). The differences in values of Quick's time measured between the three groups of rats are not significant. The rats in the group of rats that received the combination of bromadiolone and cholecalciferol coagulate in the same way as the rats in the group of rats that received the gavage solution containing bromadiolone on the one hand and the rats in the group of rats that received the gavage solution containing cholecalciferol on the other hand. Quick's time for rats treated with a control solution formed from oil (95%, v/v) and DMSO (5%, v/v) is (bar “A”) 12.8 seconds (±2.3). Neither the gavage solution containing bromadiolone in combination with cholecalciferol, nor the gavage solution containing bromadiolone alone, nor the gavage solution containing cholecalciferol induces an increase of Quick's time relative to the control. […]

Data set [4] has the same test system. Put plainly: Synergy of difethialone and cholecalciferol on warfarin-sensitive rats, gavage, survival. Type of data set: in vivo, rat. As to conditions: gavage once a day for 3 days; difethialone 125 μg/kg alone or combined with cholecalciferol 7.5 mg/kg; 20 days of observation. The text has this:
A group of warfarin-sensitive male OFA-Sprague-Dawley rats (Charles River, L′Arbresles, France), aged 10 weeks and with a body weight between 160 and 180 g, are fed by gavage once a day for 3 consecutive days with a gavage solution containing difethialone (LIPHATECH, France) and cholecalciferol (Sigma-Aldrich, France) in a solvent consisting of 95% (v/v) of oil and 5% (v/v) of DMSO. During this period of gavage, the rats are fed with a conventional solid feed and water in unlimited amounts. The amounts of difethialone and cholecalciferol administered are 125 μg per kilogram of body weight of the rat fed by gavage and 7.5 mg per kilogram of body weight of the rat fed by gavage, respectively. The rats in two control groups, each consisting of OFA-Sprague-Dawley rats, are fed by gavage in the same conditions with gavage solutions containing difethialone alone (125 μg/kg) or cholecalciferol alone (7.5 mg/kg), respectively. The percentage of rats surviving gavage is recorded daily, for 20 days counting from the first day of gavage. The results presented [FIG. 3] show the variation of the percentage of rodents surviving (in %) as a function of time (t, in days) following the first day of gavage. The rats fed by gavage with the difethialone solution (♦) have 100% survival after 20 days of observation. […]

The test system is the same in data set [5]. Nature of the data set: Dose/rodenticidal response effect of difethialone on warfarin-sensitive rats. Type of data set: in vivo, rat. The following applies: gavage, 21 days. The procedure: A gavage solution containing difethialone (LIPHATECH, France) in a solvent consisting of 95% (v/v) of oil and 5% (v/v) of DMSO is administered once a day for 3 consecutive days to warfarin-sensitive male OFA-Sprague-Dawley rats (Charles River, L′Arbresles, France), aged 10 weeks and with a body weight between 160 and 180 g. During this period of gavage, the rats are fed with a conventional solid feed and water in unlimited amounts. The doses of difethialone administered to the OFA-Sprague-Dawley rats, given in Table 6 hereunder, are expressed in micrograms of difethialone administered per kilogram of body weight of the gavage-fed rodent.
The percentage of rats surviving gavage is recorded daily for 21 days counting from the first day of gavage.

For data set [6] the test system is unchanged. Nature of the data set: Prothrombin level, Quick's time (difethialone gavage). Type of data set: in vivo, rat. As to conditions: difethialone solution 100 ppm, 1 mL/kg. The procedure:
Nine warfarin-sensitive male OFA-Sprague-Dawley rats (Charles River, L′Arbresles, France) are fed by gavage for 3 consecutive days with difethialone (LIPHATECH, France) in solution in a mixture consisting of 90% (v/v) of oil and 10% (v/v) of DMSO. The concentration of difethialone in the gavage solution is 0.1 g/kg (100 ppm). Each rat receives daily a volume of gavage solution calculated to correspond to 1 mL of gavage solution per kilogram of its body weight […]. 24 hours after the last gavage, a volume of blood is taken from each rat by intracardiac puncture and placed in a specimen tube containing sodium citrate. The animals are euthanized after puncture and the plasma is prepared by centrifugation. […] Quick's time (or clotting time) is evaluated on the plasma supplemented with sodium citrate, then decalcified and recalcified in the presence of calcium thromboplastin. Quick's time is evaluated by means of an optical device for clotting analysis (Option 2plus, Bio Mèrieux®). The average Quick's time measured on the plasma from the rats fed by gavage with difethialone is 23.4 seconds (±6.1). For comparison, the average Quick's time of control rats fed by gavage with the solution without difethialone is 17.5 seconds (±2.1). The difference in values of Quick's time of the rats fed by gavage with the difethialone solution and with the control solution without difethialone is not significant.

Data set [7] deals with Female Sprague-Dawley rats that are homozygotic carriers of the Y139F mutation in the Vkorc1 gene. Nature of the data set: Synergy of difethialone and cholecalciferol on warfarin-resistant female Sprague-Dawley Y139F rats. Type of data set: in vivo, rat. The following applies: gavage once a day for 3 days; difethialone 0.125 mg/kg alone, cholecalciferol 7.5 mg/kg alone, or both combined; 22 days of observation. From the text:
Female Sprague-Dawley rats that are homozygotic carriers of the Y139F mutation in the Vkorc1 gene, aged 10 weeks, are acclimatized for 5 days in the presence of a conventional solid feed and water in unlimited amounts. These female Sprague-Dawley Y139F rats are fed by gavage once a day for 3 consecutive days with a gavage solution containing difethialone (LIPHATECH, France) and cholecalciferol (Sigma-Aldrich, France) in a solvent consisting of 95% (v/v) of oil and 5% (v/v) of DMSO. During this period of gavage, the rats are fed with a conventional solid feed and water in unlimited amounts. The amounts of difethialone and cholecalciferol administered are 0.125 mg per kilogram of body weight of the rat fed by gavage and 7.5 mg per kilogram of body weight of the rat fed by gavage, respectively. The rats in two control groups, each consisting of OFA-Sprague-Dawley […] rats, are fed by gavage in the same conditions with gavage solutions containing, respectively, difethialone alone so as to administer an amount of difethialone corresponding to 0.125 mg per kilogram of body weight of the rat fed by gavage and cholecalciferol alone so as to administer an amount of cholecalciferol corresponding to 7.5 mg per kilogram of body weight of the rat fed by gavage. The percentage of rats surviving gavage is noted daily for 21 days counting from the first day of gavage. […]

Data set [8] has as its system male Sprague-Dawley rats that have undergone introgression, homozygotic carriers of the Y139F mutation in the Vkorc1 gene. Nature of the data set: Dose/rodenticidal response effect of difethialone on warfarin-resistant male Y139F rats. Type of data set: in vivo, rat. As to conditions: for Mortality, %: gavage, 21 days. The procedure:
A gavage solution containing difethialone (LIPHATECH, France) in a solvent consisting of 95% (v/v) of oil and 5% (v/v) of DMSO is administered once a day for 3 consecutive days to male Sprague-Dawley rats that have undergone introgression, which are homozygotic carriers of the Y139F mutation in the Vkorc1 gene. During this period of gavage, the rats are fed with a conventional solid feed and water in unlimited amounts. The doses of difethialone administered to the Sprague-Dawley rats that have undergone introgression, given in Table 9 hereunder, are expressed in micrograms of difethialone administered per kilogram of body weight of the gavage-fed rodent.
The percentage of rats surviving gavage is noted daily for 21 days counting from the first day of gavage. 100% of the Sprague-Dawley rats that had undergone introgression survive gavage for 3 days with 0.125 mg of difethialone per kilogram of body weight per day.

Setting [9] is: dose 100 μg/kg once a day for 3 days.
Setting [10] is: dose 500 μg/kg once a day for 3 days.

With `C=C1/C(=C\C=C2/CCC[C@]3(C)[C@@H]([C@H](C)CCCC(C)(C)O)CC[C@@H]23)C[C@@H](O)C[C@@H]1O` [Calcitriol, 1,25-dihydroxycholecalciferol], the “half-life in the body” value in data set [1] is approximately 5 h.
Regarding `O=c1oc2ccccc2c(O)c1C(CC(O)c1ccc(-c2ccc(Br)cc2)cc1)c1ccccc1` (stereo not shown) [bromadiolone, 3-[3-(4′-bromo[1,1′-biphenyl]-4-yl)-3-hydroxy-1-phenylpropyl]-4-hydroxy-2H-1-benzopyran-2-one], the “percentage of rats surviving” value in data set [2] is given as 100%. Also, in data set [3] (3 daily gavages, bromadiolone 100 ppm and/or cholecalciferol 7500 ppm solution, 1 mL/kg), the “anticoagulant effect (increase of Quick's time relative to the control)” value is reported as “not anticoagulants”. Also, the “average Quick's time (clotting time)” value in data set [3] (plasma 24 hours after last of 3 daily gavages, 1 mL/kg of solution with bromadiolone 100 ppm and/or cholecalciferol 7500 ppm) was 12.4 s.
For `O=c1sc2ccccc2c(O)c1C1CC(c2ccc(-c3ccc(Br)cc3)cc2)Cc2ccccc21` (stereo not shown) [difethialone, 3-(4′bromobiphenyl-4-yl)-1-(4-hydroxythiocoumarin-3-yl)-1,2,3,4-tetrahydronaphthalene], the “percentage of rats surviving” value in data set [4] and in data set [7] was 100% throughout. The “Mortality, %” value was 0% in data set [5] (dose 50 μg/kg once a day for 3 days); 0% in data set [5] (setting [9]); 40% in data set [5] (dose 150 μg/kg once a day for 3 days); 100% in data set [5] (dose 200 μg/kg once a day for 3 days); 100% in data set [5] (setting [10]); 0% in data set [8] (setting [9]). For the same molecule, the “Mortality, %” value in data set [8] (dose 125 μg/kg once a day for 3 days) worked out at 0%; in data set [8] (dose 250 μg/kg once a day for 3 days) it was 100%; in data set [8] (setting [10]), 100%. In addition, the “anticoagulant effect (increase in Quick's time relative to the control)” value in data set [6] (3 daily gavages) is given as “not anticoagulating”. Further, the haemorrhagic sign entry in data set [6] (3 daily gavages) is on record as “No haemorrhagic sign”. The “average Quick's time (clotting time)” value in data set [6] (plasma 24 hours after last of 3 daily gavages) is 23.4 s. This molecule also showed a rats surviving gavage in data set [8] (gavage for 3 days with 0.125 mg of difethialone per kilogram of body weight per day) of 100%.
